Test results taken from PubChem BioAssay (NCI).
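Step 1: Grow cells in 96-well plates. Step 2: Expose to compound for 48 hours at 5 concentrations. Step 3: Interpolate endpoints linearly; if unreached, use highest concentration. Abbreviation: GI50, concentration required for 50% inhibition of growth. TGI denotes the concentration required for complete inhibition of growth.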

Key:
Test in all cases: growth of human tumour cells (NCI), 48 h
SK-MEL-5 melanoma = test system: SK-MEL-5 melanoma
SF-268 CNS = test system: SF-268 CNS
U251 CNS = test system: U251 CNS
HOP-92 NSCLC = test system: HOP-92 NSCLC
SNB-19 CNS = test system: SNB-19 CNS
786-0 renal = test system: 786-0 renal
MCF7 breast = test system: MCF7 breast
CCRF-CEM leukemia = test system: CCRF-CEM leukemia
SK-MEL-28 melanoma = test system: SK-MEL-28 melanoma
SR leukemia = test system: SR leukemia

Work on `ClC1=C(Cl)C(Cl)=C(Cl)C1=Cc1ccc(Cl)cc1Cl` yielded a GI50 (SK-MEL-5 melanoma) of 1.04 µM, a TGI (SK-MEL-5 melanoma) of 2.26 µM and a GI50 (SF-268 CNS) of 0.308 µM. It also gave a TGI (SF-268 CNS) of 1.43 µM, a GI50 (U251 CNS) of 0.39 µM and a TGI (U251 CNS) of 1.49 µM. It also gave a GI50 (HOP-92 NSCLC) of 0.633 µM, a TGI (HOP-92 NSCLC) of 2.56 µM and a GI50 (SNB-19 CNS) of 0.811 µM. The TGI (SNB-19 CNS) was 2.93 µM, the GI50 (786-0 renal) was 0.241 µM and the TGI (786-0 renal) was 0.618 µM. For the same molecule, the GI50 (MCF7 breast) was 0.319 µM, the TGI (MCF7 breast) was over 100 µM and the GI50 (CCRF-CEM leukemia) was 0.352 µM. It also gave a TGI (CCRF-CEM leukemia) of 3.98 µM, a GI50 (SK-MEL-28 melanoma) of 0.567 µM and a TGI (SK-MEL-28 melanoma) of 2.8 µM.
`C=C(C)C(=O)N1c2ccc(OC)cc2CC1C(=O)OCC` (stereo not drawn) was tested, and the TGI (SK-MEL-5 melanoma) was over 100 µM, the TGI (SF-268 CNS) was over 100 µM and the TGI (U251 CNS) was over 100 µM. The TGI (SNB-19 CNS) was over 100 µM, the TGI (786-0 renal) was over 100 µM and the TGI (MCF7 breast) was over 100 µM. It also gave a TGI (CCRF-CEM leukemia) of over 100 µM, a TGI (SK-MEL-28 melanoma) of over 100 µM and a TGI (SR leukemia) of over 100 µM.
In the case of `COc1ccc2nc(C3=CN(C4OC(CO)C(O)C(O)C4O)C4C=CC=CC34)sc2c1` (stereo not drawn), the GI50 (SK-MEL-5 melanoma) is reported as 31.5 µM, the TGI (SK-MEL-5 melanoma) is reported as 80.7 µM and the GI50 (SF-268 CNS) is reported as over 100 µM. It also gave a TGI (SF-268 CNS) of over 100 µM, a GI50 (U251 CNS) of 28.5 µM and a TGI (U251 CNS) of over 100 µM. It also gave a GI50 (HOP-92 NSCLC) of 67.4 µM, a TGI (HOP-92 NSCLC) of over 100 µM and a GI50 (SNB-19 CNS) of 46.8 µM. The TGI (SNB-19 CNS) was over 100 µM, the GI50 (786-0 renal) was 15.6 µM and the TGI (786-0 renal) was 58.4 µM. It also gave a GI50 (MCF7 breast) of over 100 µM, a TGI (MCF7 breast) of over 100 µM and a GI50 (CCRF-CEM leukemia) of 42.4 µM. For the same molecule, the TGI (CCRF-CEM leukemia) was over 100 µM, the GI50 (SK-MEL-28 melanoma) was over 100 µM and the TGI (SK-MEL-28 melanoma) was over 100 µM.
`NC(=O)C12CCC1C1CCCCC12N1CCOCC1` (stereo not drawn) gave a TGI (SK-MEL-5 melanoma) of over 100 µM, a TGI (SF-268 CNS) of over 100 µM and a TGI (U251 CNS) of over 100 µM. For the same molecule, the TGI (HOP-92 NSCLC) was over 100 µM, the TGI (SNB-19 CNS) was over 100 µM and the TGI (786-0 renal) was over 100 µM. The TGI (CCRF-CEM leukemia) was over 100 µM, the TGI (SK-MEL-28 melanoma) was over 100 µM and the TGI (SR leukemia) was over 100 µM.
`CC(=O)NNc1nc(C)c(C(/C=C/c2ccc(Cl)cc2)=N/NC(=S)NN)s1` gave a TGI (SK-MEL-5 melanoma) of over 100 µM, a TGI (SF-268 CNS) of over 100 µM and a TGI (U251 CNS) of over 100 µM. For the same molecule, the TGI (HOP-92 NSCLC) was over 100 µM, the TGI (SNB-19 CNS) was over 100 µM and the TGI (786-0 renal) was over 100 µM. For the same molecule, the TGI (CCRF-CEM leukemia) was over 100 µM, the TGI (SK-MEL-28 melanoma) was over 100 µM and the TGI (SR leukemia) was over 100 µM.
For `C#CCOc1cccc(Nc2ncnc3c2ncn3C2CCN(C(=O)CCl)C2)c1` (stereo not drawn), the GI50 (SK-MEL-5 melanoma) was 17.2 µM, the TGI (SK-MEL-5 melanoma) was 34.2 µM and the GI50 (SF-268 CNS) was 17.7 µM. The TGI (SF-268 CNS) was 38.2 µM, the GI50 (U251 CNS) was 18.1 µM and the TGI (U251 CNS) was 35.1 µM. For the same molecule, the GI50 (HOP-92 NSCLC) was 19.1 µM, the TGI (HOP-92 NSCLC) was 39.6 µM and the GI50 (SNB-19 CNS) was 35.1 µM. For the same molecule, the TGI (SNB-19 CNS) was over 100 µM, the GI50 (786-0 renal) was 18.9 µM and the TGI (786-0 renal) was 36.8 µM. For the same molecule, the GI50 (MCF7 breast) was 18.7 µM, the TGI (MCF7 breast) was 41.4 µM and the GI50 (CCRF-CEM leukemia) was 4.18 µM. For the same molecule, the TGI (CCRF-CEM leukemia) was 26.3 µM, the GI50 (SK-MEL-28 melanoma) was 23 µM and the TGI (SK-MEL-28 melanoma) was 53.9 µM.
`COC(=O)C1=C2CO[C@@H]3C[C@H]4C(C)(C)CCC[C@]4(C)C(=CC1)[C@]23C` gave a GI50 (SK-MEL-5 melanoma) of 20.8 µM, a TGI (SK-MEL-5 melanoma) of 43.2 µM and a GI50 (SF-268 CNS) of 98.3 µM. The TGI (SF-268 CNS) was over 100 µM, the GI50 (U251 CNS) was 43.4 µM and the TGI (U251 CNS) was over 100 µM. The GI50 (HOP-92 NSCLC) was 8.2 µM, the TGI (HOP-92 NSCLC) was 44.7 µM and the GI50 (SNB-19 CNS) was 46.8 µM. For the same molecule, the TGI (SNB-19 CNS) was over 100 µM, the GI50 (786-0 renal) was 41.5 µM and the TGI (786-0 renal) was over 100 µM. The GI50 (MCF7 breast) was 44 µM, the TGI (MCF7 breast) was over 100 µM and the GI50 (CCRF-CEM leukemia) was 21.6 µM. For the same molecule, the TGI (CCRF-CEM leukemia) was 46.4 µM, the GI50 (SK-MEL-28 melanoma) was 45.3 µM and the TGI (SK-MEL-28 melanoma) was over 100 µM.
`COc1cc(C(=C2SCCS2)c2nccc3cc(OC)c(OC)cc23)c([N+](=O)[O-])cc1OC` showed a TGI (SK-MEL-5 melanoma) of over 100 µM, a TGI (SF-268 CNS) of over 100 µM and a TGI (U251 CNS) of over 100 µM. The TGI (HOP-92 NSCLC) was over 100 µM, the TGI (SNB-19 CNS) was over 100 µM and the TGI (786-0 renal) was over 100 µM. The TGI (CCRF-CEM leukemia) was over 100 µM, the TGI (SK-MEL-28 melanoma) was over 100 µM and the TGI (SR leukemia) was over 100 µM.
